# Data from patent publication US7943770B2, “Fused quinoline derivative and use thereof” (Takeda Pharmaceutical Company Limited, priority 2004, dated 2011).
# Target: T1, hNK2 receptor (Homo sapiens, UniProt P21452)
# T1 construct: host or cells: CHO cells
# T1 sequence (P21452 1-398): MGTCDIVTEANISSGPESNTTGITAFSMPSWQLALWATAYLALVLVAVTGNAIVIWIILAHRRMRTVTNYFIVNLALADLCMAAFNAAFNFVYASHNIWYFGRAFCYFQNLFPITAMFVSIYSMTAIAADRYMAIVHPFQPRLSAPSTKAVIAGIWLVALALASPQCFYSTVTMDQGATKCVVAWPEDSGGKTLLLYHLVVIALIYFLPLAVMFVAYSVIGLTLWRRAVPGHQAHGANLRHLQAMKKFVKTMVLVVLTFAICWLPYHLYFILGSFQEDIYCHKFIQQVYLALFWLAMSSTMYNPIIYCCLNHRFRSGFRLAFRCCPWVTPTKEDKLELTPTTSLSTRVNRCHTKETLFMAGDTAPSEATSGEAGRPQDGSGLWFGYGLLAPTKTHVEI
# Test: Radio-ligand ([125I]-NKA) receptor binding inhibitory activity using membrane fraction of hNK2 receptor-expressing CHO cell
# Conditions: membrane fraction of hNK2 receptor-expressing CHO cells, 25° C., 30 min
# Summary of the method: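 Membranes from hNK2-expressing CHO cells (20 μg/mL suspension) incubated with test compound and [125I]-NKA ([…] solution as added) in Tris-HCl pH 7.4 with BSA, protease inhibitors, 3 mM MnCl2, 25 °C, 30 min. Bound radioactivity by GF/C filtration and scintillation; inhibition expressed relative to specific binding (total minus unlabeled-NKA non-specific).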
row,SMILES,IC50 [nM]
1,"O=C(N[C@@H]1CCCC[C@@H]1C(=O)N1CC[C@@H]2[C@H](c3ccccc3)Nc3ccccc3[C@@H]21)c1ccc(CO)cc1 [Example 120, 4-(Hydroxymethyl)-N-((1R,2S)-2-{[(3aR,4R,9bR)-4-phenyl-2,3,3a,4,5,9b-hexahydro-1H-pyrrolo[3,2-c]quinolin-1-yl]carbonyl}cyclohexyl)benzamide]",< 10
2,"O=C(N[C@@H]1CCCC[C@@H]1C(=O)N1CC[C@@H]2[C@H](c3ccccc3)Nc3ccccc3[C@@H]21)c1cnccn1 [Example 127, N-((1R,2S)-2-{[(3aR,4R,9bR)-4-Phenyl-2,3,3a,4,5,9b-hexahydro-1H-pyrrolo[3,2-c]quinolin-1-yl]carbonyl}cyclohexyl)pyrazine-2-carboxamide]",< 10
3,"O=C(/C=C/c1c[nH]cn1)N[C@@H]1CCCC[C@@H]1C(=O)N1CC[C@@H]2[C@H](c3ccccc3)Nc3ccccc3[C@@H]21 [Example 128, (2E)-3-(1H-Imidazol-4-yl)-N-((1R,2S)-2-{[(3aR,4R,9bR)-4-phenyl-2,3,3a,4,5,9b-hexahydro-1H-pyrrolo[3,2-c]quinolin-1-yl]carbonyl}cyclohexyl)acrylamide]",< 10
4,"O=C(N[C@@H]1CCCC[C@@H]1C(=O)N1CC[C@@H]2[C@H](c3ccccc3)Nc3ccccc3[C@@H]21)c1ncc[nH]1 [Example 129, N-((1R,2S)-2-{[(3aR,4R,9bR)-4-Phenyl-2,3,3a,4,5,9b-hexahydro-1H-pyrrolo[3,2-c]quinolin-1-yl]carbonyl}cyclohexyl)-1H-imidazole-2-carboxamide]",< 10
5,"Cn1ccnc1C(=O)N[C@@H]1CCCC[C@@H]1C(=O)N1CC[C@@H]2[C@H](c3ccccc3)Nc3ccccc3[C@@H]21 [Example 132, 1-Methyl-N-((1R,2S)-2-{[(3aR,4R,9bR)-4-phenyl-2,3,3a,4,5,9b-hexahydro-1H-pyrrolo[3,2-c]quinolin-1-yl]carbonyl}cyclohexyl)-1H-imidazole-2-carboxamide]",< 10
6,"O=C(Nc1ccc(Cl)cc1)N[C@@H]1CCCC[C@@H]1C(=O)N1CC[C@@H]2[C@H](c3ccccc3)Nc3ccccc3[C@@H]21 [Example 136, N-(4-Chlorophenyl)-N′-((1R,2S)-2-{[(3aR,4R,9bR)-4-phenyl-2,3,3a,4,5,9b-hexahydro-1H-pyrrolo[3,2-c]quinolin-1-yl]carbonyl}cyclohexyl)urea]",< 10
7,"O=C(Nc1ccc(C(F)(F)F)cc1)N[C@@H]1CCCC[C@@H]1C(=O)N1CC[C@@H]2[C@H](c3ccccc3)Nc3ccccc3[C@@H]21 [Example 140, N-((1R,2S)-2-{[(3aR,4R,9bR)-4-Phenyl-2,3,3a,4,5,9b-hexahydro-1H-pyrrolo[3,2-c]quinolin-1-yl]carbonyl}cyclohexyl)-N′-[4-(trifluoromethyl)phenyl]urea]",< 10
8,"O=C(Nc1cccc(Cl)c1)N[C@@H]1CCCC[C@@H]1C(=O)N1CC[C@@H]2[C@H](c3ccccc3)Nc3ccccc3[C@@H]21 [Example 141, N-(3-Chlorophenyl)-N′-((1R,2S)-2-{[(3aR,4R,9bR)-4-phenyl-2,3,3a,4,5,9b-hexahydro-1H-pyrrolo[3,2-c]quinolin-1-yl]carbonyl}cyclohexyl)urea]",< 10
9,"O=C(NCc1ccccc1)N[C@@H]1CCCC[C@@H]1C(=O)N1CC[C@@H]2[C@H](c3ccccc3)Nc3ccccc3[C@@H]21 [Example 143, N-Benzyl-N′-((1R,2S)-2-{[(3aR,4R,9bR)-4-phenyl-2,3,3a,4,5,9b-hexahydro-1H-pyrrolo[3,2-c]quinolin-1-yl]carbonyl}cyclohexyl)urea]",< 10

# Now from value to molecule:
row,IC50 [nM],SMILES
1,< 10,"O=C(N[C@@H]1CCCC[C@@H]1C(=O)N1CC[C@@H]2[C@H](c3ccccc3)Nc3ccccc3[C@@H]21)c1ccc(Cl)cc1 [Example 114, 4-Chloro-N-((1R,2S)-2-{[(3aR,4R,9bR)-4-phenyl-2,3,3a,4,5,9b-hexahydro-1H-pyrrolo[3,2-c]quinolin-1-yl]carbonyl}cyclohexyl)benzamide]"
2,< 10,"COC(=O)CCCCC(=O)N[C@@H]1CCCC[C@@H]1C(=O)N1CC[C@@H]2[C@H](c3ccccc3)Nc3ccccc3[C@@H]21 [Example 116, Methyl 6-oxo-6-[((1R,2S)-2-{[(3aR,4R,9bR)-4-phenyl-2,3,3a,4,5,9b-hexahydro-1H-pyrrolo[3,2-c]quinolin-1-yl]carbonyl}cyclohexyl)amino]hexanoate]"
3,< 10,"O=C(CCCCCN1CCOCC1)N[C@@H]1CCCC[C@@H]1C(=O)N1CC[C@@H]2[C@H](c3ccccc3)Nc3ccccc3[C@@H]21 [Example 117, 6-Morpholin-4-yl-N-((1R,2S)-2-{[(3aR,4R,9bR)-4-phenyl-2,3,3a,4,5,9b-hexahydro-1H-pyrrolo[3,2-c]quinolin-1-yl]carbonyl}cyclohexyl)hexanamide]"
4,< 10,"O=C(CCCCCO)N[C@@H]1CCCC[C@@H]1C(=O)N1CC[C@@H]2[C@H](c3ccccc3)Nc3ccccc3[C@@H]21 [Example 119, 6-Hydroxy-N-((1R,2S)-2-{[(3aR,4R,9bR)-4-phenyl-2,3,3a,4,5,9b-hexahydro-1H-pyrrolo[3,2-c]quinolin-1-yl]carbonyl}cyclohexyl)hexanamide]"
5,< 1,"O=C(N[C@@H]1CCCC[C@@H]1C(=O)N1CC[C@@H]2[C@H](c3ccccc3)Nc3ccccc3[C@@H]21)c1ccc2[nH]cnc2c1 [Example 133, N-((1R,2S)-2-{[(3aR,4R,9bR)-4-Phenyl-2,3,3a,4,5,9b-hexahydro-1H-pyrrolo[3,2-c]quinolin-1-yl]carbonyl}cyclohexyl)-1H-benzimidazole-5-carboxamide]"
6,< 1,"O=C(/C=C/c1ncc[nH]1)N[C@@H]1CCCC[C@@H]1C(=O)N1CC[C@@H]2[C@H](c3ccccc3)Nc3ccccc3[C@@H]21 [Example 134, (2E)-3-(1H-Imidazol-2-yl)-N-((1R,2S)-2-{[(3aR,4R,9bR)-4-phenyl-2,3,3a,4,5,9b-hexahydro-1H-pyrrolo[3,2-c]quinolin-1-yl]carbonyl}cyclohexyl)acrylamide]"
7,< 1,"O=C(Nc1ccccc1)N[C@@H]1CCCC[C@@H]1C(=O)N1CC[C@@H]2[C@H](c3ccccc3)Nc3ccccc3[C@@H]21 [Example 135, N-phenyl-N′-((1R,2S)-2-{[(3aR,4R,9bR)-4-phenyl-2,3,3a,4,5,9b-hexahydro-1H-pyrrolo[3,2-c]quinolin-1-yl]carbonyl}cyclohexyl)urea]"
8,< 1,"COc1ccc(NC(=O)N[C@@H]2CCCC[C@@H]2C(=O)N2CC[C@@H]3[C@H](c4ccccc4)Nc4ccccc4[C@@H]32)cc1 [Example 137, N-(4-Methoxyphenyl)-N′-((1R,2S)-2-{[(3aR,4R,9bR)-4-phenyl-2,3,3a,4,5,9b-hexahydro-1H-pyrrolo[3,2-c]quinolin-1-yl]carbonyl}cyclohexyl)urea]"
9,< 1,"Cc1ccc(NC(=O)N[C@@H]2CCCC[C@@H]2C(=O)N2CC[C@@H]3[C@H](c4ccccc4)Nc4ccccc4[C@@H]32)cc1 [Example 138, N-(4-Methylphenyl)-N′-((1R,2S)-2-{[(3aR,4R,9bR)-4-phenyl-2,3,3a,4,5,9b-hexahydro-1H-pyrrolo[3,2-c]quinolin-1-yl]carbonyl}cyclohexyl)urea]"
10,< 1,"O=C(Nc1ccc(F)cc1)N[C@@H]1CCCC[C@@H]1C(=O)N1CC[C@@H]2[C@H](c3ccccc3)Nc3ccccc3[C@@H]21 [Example 139, N-(4-Fluorophenyl)-N′-((1R,2S)-2-{[(3aR,4R,9bR)-4-phenyl-2,3,3a,4,5,9b-hexahydro-1H-pyrrolo[3,2-c]quinolin-1-yl]carbonyl}cyclohexyl)urea]"
